Experimental data from patent EP4345091A1, “BENZOIC ACID DERIVATIVES, METHODS AND USES THEREOF” (priority 2022, dated 2024).
Converted amounts (≈) assume the structure as drawn. Where two headings read alike, the source gives them in different places.

Tests used:
[1] = system: Mycobacterium tuberculosis H37Rv; assay: MIC and MBC by broth microdilution against M. tuberculosis H37Rv; type: cell-based, Mycobacterium tuberculosis H37Rv (ATCC 27294); conditions: Mycobacterium tuberculosis, H37RV
[2] = Chemical stability in phosphate buffer pH 7.4
Description: (§3) Chemical hydrolysis was evaluated in phosphate buffer at physiological pH (7.4) to determine its influence in enzymatic studies.
(§4) 1176 µL pH 7.4 phosphate buffer or pH 5.9 phosphate buffer, 18 µL ACN and 6 µL of a 10-1 M stock solution of the prodrug in ACN were mixed in a 2mL vial. The solution was incubated at 37 °C and 50 µL aliquots were removed, mixed with 450 µL of ACN: H2O 1:1. The solution was analysed by HPLC, the remaining substrate and the correspondent acid were both measured.
(§5) The eluant was a mixture of acetonitrile (60%/70%) and aqueous phosphate buffer with 5% of KH2PO4/H3PO4 0.025M (40%/30%). The flow rate was always 1 mL/1 min and wavelength was set at 230 nm. All quantifications were evaluated using calibration curves from stock solutions.
(§6) The initial substrate concentration was 5 x 10^-4 M in all stability assays. All incubations were carried out at pH 7.4 and 37 °C under agitation using the phosphate buffer described above as diluting agent. […] Acetonitrile (2%) was used in all studies to ensure adequate solubilization of the substrates.

[3] = Stability in human plasma (enzymatic hydrolysis)
Description: The studies of stability in human plasma were performed in human plasma diluted to 80% with phosphate buffer pH 7.4 of total concentration 0.05 M and ionic strength 0.15 M at 37°C. […] Study of enzymatic hydrolysis. […] Initial substrate concentration (ester) - 5×10^-4M with 2% ACN.
Pooled human plasma (960 µL), pH 7.4 phosphate buffered saline (216 µL), 18 µL ACN and 6 µL of a 10-1 M stock solution of the prodrug in ACN were mixed in a 2mL vial. The suspensions were incubated at 37 °C and 50 µL aliquots were removed, mixed with 450 µL of ACN: ZnSO4 1% 1:1 and centrifuged. The supernatant was removed and analysed by HPLC, the remaining substrate and the correspondent acid measured.
Two HPLC systems were used. The buffer and plasma stability studies were performed in an HPLC system with a photodiode detector L-3000 Photo Diode Array Detector, Merck-Hitachi L-6000 pump, Merck-Hitachi D-2500 integrator, and Merck RP-8 column. […] The eluant was a mixture of acetonitrile (60%/70%) and aqueous phosphate buffer with 5% of KH2PO4/H3PO4 0.025M (40%/30%). The flow rate was always 1 mL/1 min and wavelength was set at 230 nm. All quantifications were evaluated using calibration curves from stock solutions.
The initial substrate concentration was 5 x 10^-4 M in all stability assays. All incubations were carried out at pH 7.4 and 37 °C under agitation using the phosphate buffer described above as diluting agent. […] Acetonitrile (2%) was used in all studies to ensure adequate solubilization of the substrates. The benzoates were added from 10 to 1M acetonitrile stock solutions. After incubation, aliquots of 50 µL were taken into vials containing 450 µL of a 1:1 solution of 1% zinc sulfate and acetonitrile, mixed in a vortex and centrifuged for 10 min at 15,000 rpm. The supernatant was then injected into the HPLC and analysed for quantification of benzoic acid and remaining benzoate. All quantifications were performed using calibration curves.

[4] = Stability in Mycobacterium smegmatis homogenate (enzymatic hydrolysis); conditions: pH 7.4; for half-life: Mycobacterium smegmatis; for half-life at 500 µM: mycobacterium smegmatis homogenate
[5] = system: Mycobacterium smegmatis homogenate; assay: as above; conditions: Mycobacterium smegmatis homogenate, 37°C
[6] = Cytotoxicity assay in THP-1 cells; type: cell-based, human; conditions: human, THP-1 cells, lethal concentration for 50% of the cell population, read-out: LC50 (the source's name)
Description: (§1) Cytotoxicity results were obtained through lethal concentration for 50% of the cell population, LC50. Table 6. Results obtained from cytotoxicity assays for the esters, represented by LD50 in µg/mL and comparison with MIC values, in µg/mL with toxicity/activity (T/A) index.
(§2) The T/A index quantitatively is the ratio between the lethal concentration (LC50) given by the minimum inhibitory concentration (MIC).

[7] = system: human monocytic cell line THP-1 (ATCC56 TIB202); assay: Cytotoxicity assay in THP-1 cells; type: cell-based; conditions: toxicity/activity index: ratio LC50 (THP-1) / MIC (M. tuberculosis H37Rv)
Description: as §1, §2

[8] = pH 7.4
Description: as §3, §4, §5, §6

[9] = system: Mycobacterium Bovis BCG infecting human macrophages THP-1; type: cell-based; conditions: compound concentration 2 µg/ml
[10] = M. tuberculosis H37Rv, Table 3, read-out: MBC
[11] = M. tuberculosis H37Rv, Tables 3, 6 and 7, read-out: MIC
[12] = M. tuberculosis H37Rv, Tables 3, 6 and 7

SMILES	MBC [1, 10] [µg/mL]	MIC [1, 11] [µg/mL]	Degradation (%) 24h [2] [%]	Degradation (%) 48h [2] [%]	Degradation (%) 72h [2] [%]	Degradation (%) 168h [2] [%]	Degradation (%) 332h [2] [%]	Degradation (%) 24h [3] [%]	Degradation (%) 48h [3] [%]	Degradation (%) 72h [3] [%]	half-life [4] [h]	Degradation (%) 24h [5] [%]	Degradation (%) 48h [5] [%]	T/A [7]	half-life at 500 µM [4] [h]	CC50 ([6]; THP-1 monocytic cells) [µg/mL]	also measured
CCCCOC(=O)c1ccccc1 [Compound 1a, Butyl benzoate]	> 256	> 256	0	0	0	1	2	100	100	100	0.2 ± 0.01	100	100	–	–	–	–
CCCCCCCCOC(=O)c1ccccc1 [Compound 1c, Octyl benzoate]	> 256	256 (≈ 1090 µM)	0	0	0	0	0	45	71	84	–	100	100	6	1.96 ± 0.02	–	CC50 [6]: 1650 µg/mL (≈ 7020 µM)
CCCCCCCCCCCCOC(=O)c1ccccc1 [Compound 1e, Dodecyl benzoate]	512 (≈ 1760 µM)	256 (≈ 881 µM)	0	0	0	0	0	3	6	9	91.4 ± 3.1	16	30	–	–	–	–
CCCCOC(=O)c1ccc([N+](=O)[O-])cc1 [Compound 2a]	–	–	–	–	–	–	–	–	–	–	–	99	100	–	3.46 ± 0.49	–	MBC ([1]; M. tuberculosis H37Rv, Table 3): 128 µg/mL (≈ 573 µM); MIC [1, 12]: 64 µg/mL (≈ 287 µM); Degradation (%) 24h [8]: 0%; Degradation (%) 48h [8]: 1%; Degradation (%) 72h [8]: 1%; Degradation (%) 168h [8]: 2%; Degradation (%) 332h [8]: 4%
CCCCCCCCOC(=O)c1ccc([N+](=O)[O-])cc1 [Compound 2c, Octyl 4-nitrobenzoate]	128 (≈ 458 µM)	8 (≈ 28.6 µM)	0	1	1	3	6	100	100	100	39 ± 7.7	35	58	82	–	657 (≈ 2350 µM)	–
CCCCCCCCCCCCOC(=O)c1ccc([N+](=O)[O-])cc1 [Compound 2e]	–	–	–	–	–	–	–	–	–	–	–	19	34	–	79.4 ± 4.7	–	MBC ([1]; M. tuberculosis H37Rv, Table 3): 64 µg/mL (≈ 191 µM); MIC [1, 12]: 8 µg/mL (≈ 23.8 µM); Degradation (%) 24h [8]: 0%; Degradation (%) 48h [8]: 0%; Degradation (%) 72h [8]: 0%; Degradation (%) 168h [8]: 1%; Degradation (%) 332h [8]: 1%
CCCCOC(=O)c1cc([N+](=O)[O-])cc([N+](=O)[O-])c1 [Compound 3a]	–	–	10	14	18	40	65	86	98	100	–	93	99	14	6.32 ± 0.44	–	MBC [1]: 128 µg/mL (≈ 477 µM); MIC [1]: 32 µg/mL (≈ 119 µM); CC50 [6]: 456 µg/mL (≈ 1700 µM)
CCCCCCOC(=O)c1cc([N+](=O)[O-])cc([N+](=O)[O-])c1 [Compound 3b]	–	–	–	–	–	–	–	74	93	98	–	19	34	17	80.9 ± 5.5	–	CFU x10^4 ([9]; Time 0 days): 9.2 CFUs per mL; CFU x10^4 ([9]; Time 1 day): 14.58 CFUs per mL; CFU x10^4 ([9]; Time 3 days): 11.87 CFUs per mL; CFU x10^4 ([9]; Time 7 days): 9.83 CFUs per mL; CC50 [6]: 528 µg/mL (≈ 1780 µM)
CCCCOC(=O)c1cc([N+](=O)[O-])cc(C(F)(F)F)c1 [Compound 4a, Butyl 3-nitro-5-(trifluoromethyl)benzoate]	1020 (≈ 3520 µM)	1020 (≈ 3520 µM)	5	12	16	35	60	95	100	100	5.36 ± 0.44	95	100	0.54	–	552 (≈ 1900 µM)	–
CCCCCCOC(=O)c1cc([N+](=O)[O-])cc(C(F)(F)F)c1 [Compound 4b, Hexyl 3-nitro-5-(trifluoromethyl)benzoate]	1020 (≈ 3210 µM)	1020 (≈ 3210 µM)	–	–	–	–	–	72	94	98	105 ± 10	15	27	0.62	–	639 (≈ 2000 µM)	–
CCCCNC(=O)c1ccc([N+](=O)[O-])cc1 [Compound 6a, N-butyl-4-nitrobenzamide]	256 (≈ 1150 µM)	128 (≈ 576 µM)	0	0	0	0	0	12	23	32	76.5 ± 5.3	20	35	–	–	–	–
CCCCNC(=O)c1cc([N+](=O)[O-])cc(C(F)(F)F)c1 [Compound 8a, N-butyl-3-nitro-5-(trifluoromethyl)-benzamide]	2 (≈ 6.89 µM)	2 (≈ 6.89 µM)	0	0	0	0	0	0	0	0	63.8 ± 4.1	23	41	21	–	41 (≈ 141 µM)	–
